# According to patent US9127037B2, “Crystalline rostafuroxin” (ROSTAQUO S.P.A., priority 2005, dated 2015):
# Key:
# Na—K pump = settings: cultured renal cells, cited from earlier work
# normotensive rats = settings: cited from earlier work
# [1] = target: purified sodium, potassium ATPase enzyme (Na—K ATPase); settings: in vitro; read-out: IC50, displacement of ouabain from its binding sites on purified Na—K ATPase; cited from earlier work
# [2] = system: other receptors involved in blood pressure regulation or hormonal control; settings: in vitro; cited from earlier work
# [3] = system: rats made hypertensive by chronic infusion of ouabain; settings: ouabain 50 microg/kg/day chronic infusion, per os 0.1-1 microg/kg/day for 4 weeks; cited from earlier work
# Solubility in water = format: physicochemical
# Protocol: A mixture of 5.00 grams of rostafuroxin (amorphous or any other crystalline form) and 50 ml of absolute ethanol was stirred until clearness. This solution was than added dropwise into 250 ml of water at room temperature under vigorous stirring at room temperature. At the end of addiction, the mixture was filtered and washed with deionized water. The product was dried under vacuum at 40° C. for 16 hours. The product contained 10.6% of water, corresponding to about 2.5 moles of water per mole of rostafuroxin (rostafuroxin.2.5H2O). Yield: 55%.
smiles,measurement,setting,value
"C[C@@H]1O[C@@H](O[C@H]2C[C@@H](O)[C@]3(CO)[C@H]4[C@H](O)C[C@]5(C)[C@@H](C6=CC(=O)OC6)CC[C@]5(O)[C@@H]4CC[C@]3(O)C2)[C@H](O)[C@H](O)[C@H]1O [ouabain, reference compound]",concentration that stimulated the Na—K pump at Vmax,Na—K pump; incubation for 5 days,10^−10 to 10^−8 M
"C[C@]12CC[C@H](O)C[C@H]1CC[C@@H]1[C@@H]2CC[C@]2(C)[C@@](O)(c3ccoc3)CC[C@]12O [rostafuroxin, 17β-(3-furyl)-5β-androstane-3β,14β,17α-triol]",blood pressure,normotensive rats,did not affect
same,renal Na—K ATPase activity,normotensive rats,did not affect
same,IC50,[1],1700 nM
same,interaction with other receptors involved in blood pressure regulation or hormonal control,[2],without interacting
same,concentrations that abolished the ouabain-dependent increase in the Na—K pump rate,Na—K pump,10^−14 to 10^−9 M
same,stimulation of the Na—K pump at Vmax (same effect as ouabain),Na—K pump,showed the same effect at micromolar concentration
same,increase in blood pressure caused by ouabain,[3],abolished
same,increase in renal Na—K ATPase activity caused by ouabain,[3],abolished
"CC12CCC(O)CC1CCC1C2CCC2(C)C(O)(c3ccoc3)CCC12O (stereo not drawn) [Form F, 17β-(3-furyl)-5β-androstane-3β,14β,17α-triol]",solubility in water,Solubility in water,low solubility
